Source: patent US20230091225A1, “Bifunctional chimeric heterocyclic compounds for targeted degradation of androgen receptors and use thereof” (HINOVA PHARMACEUTICALS INC., priority 2019, published 2023)

These molecules were tested against T1, androgen receptor (AR) (Homo sapiens, UniProt P10275) (assay: Degradation of androgen receptor (AR) protein in VCaP cells by Western blot). Settings: percentage of degraded AR at 100 nM, VCaP cells, 16 h.
T1 sequence (P10275 1-920): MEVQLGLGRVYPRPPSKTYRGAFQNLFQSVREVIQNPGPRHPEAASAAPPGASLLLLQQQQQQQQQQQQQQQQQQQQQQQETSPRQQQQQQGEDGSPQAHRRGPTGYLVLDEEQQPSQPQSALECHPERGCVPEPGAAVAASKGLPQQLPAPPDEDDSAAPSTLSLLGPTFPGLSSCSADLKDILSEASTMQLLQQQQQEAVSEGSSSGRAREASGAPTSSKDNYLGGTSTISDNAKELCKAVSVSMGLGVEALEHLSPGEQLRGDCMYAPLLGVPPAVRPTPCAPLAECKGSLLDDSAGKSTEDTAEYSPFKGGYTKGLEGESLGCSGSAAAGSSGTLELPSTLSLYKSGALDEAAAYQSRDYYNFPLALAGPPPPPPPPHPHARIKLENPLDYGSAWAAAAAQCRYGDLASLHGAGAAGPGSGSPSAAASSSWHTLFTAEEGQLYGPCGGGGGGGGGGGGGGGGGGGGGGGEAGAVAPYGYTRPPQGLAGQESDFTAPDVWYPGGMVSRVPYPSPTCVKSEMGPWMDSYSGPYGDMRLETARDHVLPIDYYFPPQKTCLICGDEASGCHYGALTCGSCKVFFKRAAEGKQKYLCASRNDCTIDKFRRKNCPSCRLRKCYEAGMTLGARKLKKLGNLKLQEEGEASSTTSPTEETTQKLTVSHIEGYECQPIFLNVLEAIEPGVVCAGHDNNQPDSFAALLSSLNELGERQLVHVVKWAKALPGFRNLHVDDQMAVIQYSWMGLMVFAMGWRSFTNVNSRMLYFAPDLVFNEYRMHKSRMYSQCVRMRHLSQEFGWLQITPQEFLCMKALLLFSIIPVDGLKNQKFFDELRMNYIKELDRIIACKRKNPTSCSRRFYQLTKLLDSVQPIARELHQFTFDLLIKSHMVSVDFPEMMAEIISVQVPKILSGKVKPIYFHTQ
Assay type: cell-based
Description: Determination of the Degradation Activity of the Compound on Androgen Receptor (AR) Protein by Western Blot
1) VCaP cells were subcultured in cell culture media, and then the cells in good growth condition were seeded in a 12-well plate at 1 ml/well (5×10^5 cells/well), and cultured overnight in a 37° C., 5% CO2 cell incubator. 2) The test compound was prepared into a 10 mM stock solution with dimethyl sulfoxide (DMSO). Prior to use, the solution was diluted 3 times with DMSO. […] of the diluted compound solution was added to the cell culture well (ensuring that the DMSO concentration in the culture system was 0.1%), and two wells were set for each concentration. The plate was gently shaken to mix. In addition, the experiment included negative control wells (containing equal amount of DMSO) and positive control wells. 3) After culturing 16 h. the cells were lysed with RIPA cell lysate, and the protein was extracted. The protein concentration was measured with BCA kit. 5-fold concentrated protein loading buffer was added, and after heated at 100° C. for 5 min. the sample was stored at −20° C. 4) for each well, 30 μg of protein was loaded on polyacrylamide gel for electrophoresis. 5) The protein was transferred from polyacrylamide gel to PVDF membrane, and then 5% skim milk was added to close for 1 h at room temperature. The first antibody (Androgen Receptor (D6F11) XP Rabbit mAb and Anti-β-Actin Rabbit mAb) was added and incubated overnight at 4° C. The membrane was washed with TBST solution three times. 10 min for each time. The secondary antibody (horseradish peroxidase labeled goat […]) was added and incubated at room temperature for 2 h, and then the membrane was washed with TBST solution three times. 10 min for each time.
Finally, ECL chemiluminescence solution was added, and then photos were taken with automatic chemiluminescence instrument to collect pictures for analysis.

Row | inhibition at 0.1 µM [%] | Structure (SMILES) | % degradation
1 | > 80 | N#Cc1ccc(O[C@H]2CC[C@H](NC(=O)c3cnc(N4CC5CN(CC6CCN(c7cc8c(cc7F)C(=O)N(C7CCC(=O)NC7=O)C8=O)CC6)CC5C4)cn3)CC2)cc1Cl (stereo partly drawn) [Compound 157] | 
2 | 50 to 79 | N#Cc1ccc(O[C@H]2CC[C@H](NC(=O)c3ccc(N4CCN(CC5C[C@@H]6CN(c7cc8c(cc7F)C(=O)N(C7CCC(=O)NC7=O)C8=O)C[C@@H]6C5)CC4)nn3)CC2)cc1Cl (stereo partly drawn) [Compound 226] | 
3 | 50 to 79 | N#Cc1ccc(O[C@H]2CC[C@H](NC(=O)c3ccc(N4CCC(CN5CC6CN(c7cc8c(cc7F)C(=O)N(C7CCC(=O)NC7=O)C8=O)CC6C5)CC4)nn3)CC2)cc1Cl (stereo partly drawn) [Compound 253, N-((1r,4r)-4-(3-chloro-4-cyanophenoxy)cyclohexyl)-6-(4-((5-(2-(2,6-dioxopiperidin-3-yl)-6-fluoro-1,3-dioxoisoindolin-5-yl)Hexahydropyrrolo[3,4-c]pyrrol-2(1H)-yl)methyl)piperidin-1-yl)pyridazine-3-formamide] | 
4 | 50 to 79 | N#Cc1ccc(O[C@H]2CC[C@H](NC(=O)c3cnc(N4CCC(CN5CC6CN(c7ccc8c(c7)C(=O)N(C7CCC(=O)NC7=O)C8=O)CC6C5)CC4)cn3)CC2)cc1Cl (stereo partly drawn) [Compound 254, N-((1r,4r)-4-(3-chloro-4-cyanophenoxy)cyclohexyl)-5-(4-((5-(2-(2,6-dioxopiperidin-3-yl)-1,3-dioxoisoindolin-5-yl)Hexahydropyrrolo[3,4-c]pyrrol-2(11H)-yl)methyl)piperidin-1-yl)pyrazine-2-carboxamide] | 
5 | 25 to 49 | N#Cc1ccc(O[C@H]2CC[C@H](NC(=O)c3cnc(N4CCC(CN5CC6CN(c7ccc8c(c7)C(=O)N(C7CCC(=O)NC7=O)C8=O)CC6C5)CC4)nc3)CC2)cc1Cl (stereo partly drawn) [Compound 256, N-((1r,4r)-4-(3-chloro-4-cyanophenoxy)cyclohexyl)-2-(4-((5-(2-(2,6-dioxopiperidin-3-yl)-1,3-dioxoisoindolin-5-yl)Hexahydropyrrolo[3,4-c]pyrrol-2(11H)-yl)methyl)piperidin-1-yl)pyrimidine-5-carboxamide] | 

Further lines, the molecule ahead of its results:

Row | Structure (SMILES) | inhibition at 0.1 µM [%] | % degradation
6 | N#Cc1ccc(OC2CCC(NC(=O)c3cnc(N4C[C@@H]5CN(C6CCN(c7cc8c(cc7F)C(=O)N(C7CCC(=O)NC7=O)C8=O)CC6)C[C@@H]5C4)nc3)CC2)cc1Cl (stereo partly drawn) [Compound 220, N-((1s,4S)-4-(3-chloro-4-cyanophenoxy)cyclohexyl)-2-((3aR,6aS)-5-(1-(2-(2,6-dioxopiperidin-3-yl)-6-fluoro-1,3-dioxoisoindolin-5-yl)piperidine-4-yl)hexahydropyrrolo[3,4-c]pyrrol-2(1H)-yl)pyrimidine-5-carboxamide] |  | D (<25%)
7 | CC1(C)[C@H](Oc2ccc(C#N)c(Cl)c2)C(C)(C)[C@H]1N1Cc2nc(C#CC3CN(C4CCN(c5ccc6c(c5)C(=O)N(C5CCC(=O)NC5=O)C6=O)CC4)C3)ccc2C1=O (stereo partly drawn) [Compound 319, 2-Chloro-4-((1r,3r)-3-(2-((1-(1-(2-(2,6-dioxopiperidin-3-yl)-1,3-dioxoisoindolin-5-yl)piperidine-4-yl)azelaic acid-3-yl)ethynyl)-5-oxo-5H-pyrrolo[3,4-b]pyridin-6(7H)-yl)-2,2,4,4-tetramethylcyclobutoxy)benzonitrile] | < 25 | 
8 | CC1(C)C(NC(=O)c2ccc(N3C[C@@H]4C(CN5CCN(c6cc7c(cc6F)C(=O)N(C6CCC(=O)NC6=O)C7=O)CC5)[C@@H]4C3)nn2)C(C)(C)C1Oc1ccc(C#N)c(Cl)c1 (stereo partly drawn) [Compound 181, N-((1r,3R)-3-(3-chloro-4-cyanophenoxy)-2,2,4,4-tetramethylcyclobutyl)-6-((1R,5S,6S)-6-((4-(2-(2,6-dioxopiperidin-3-yl)-6-fluoro-1,3-dioxoisoindolin-5-yl)piperazin-1-yl)methyl)-3-azabicyclo[3.1.0]hexan-3-yl)pyridazine-3-formamide] |  | B (79%-50%)
9 | N#Cc1ccc(O[C@H]2CC[C@H](NC(=O)c3ccc(N4CCC(CN5CCC6(CC5)CN(c5cc7c(cc5F)C(=O)N(C5CCC(=O)NC5=O)C7=O)C6)CC4)nn3)CC2)cc1Cl (stereo partly drawn) [Compound 231, N-((1r,4r)-4-(3-chloro-4-cyanophenoxy)cyclohexyl)-6-(4-((2-(2-(2-,2,6-dioxopiperidin-3-yl)-6-fluoro-1,3-dioxoisoindolin-5-yl)-2,7-diazaspiro[3.5]nonan-7-yl)methyl)piperidin-1-yl)pyridazine-3-carboxamide] | > 80 | 
10 | N#Cc1ccc(O[C@H]2CC[C@H](NC(=O)c3ccc(N4CCN(C(=O)O[C@H]5C[C@@H]6CN(c7cc8c(cc7F)C(=O)N(C7CCC(=O)NC7=O)C8=O)C[C@@H]6C5)CC4)nn3)CC2)cc1Cl (stereo partly drawn) [Compound 290] | 50 to 79 | 
11 | CC1(C)[C@H](Oc2ccc(C#N)c(Cl)c2)C(C)(C)[C@H]1N1Cc2nc(C#CC3CCN(C4CCN(c5ccc6c(c5)C(=O)N(C5CCC(=O)NC5=O)C6=O)CC4)CC3)ccc2C1=O (stereo partly drawn) [Compound 315, 2-chloro-4-((1r,3r)-3-(2-((1′-(2-(2,6-dioxopiperidin-3-yl)-1,3-dioxoisoindolin-5-yl)-[1,4′-dipiperidine]4-yl)ethynyl)-5-oxo-5,7-dihydro-6H-pyrrolo[3,4-b]pyridin-6-yl)-2,2,4,4-tetramethylcyclobutoxy)benzonitrile] | < 25 | 
12 | N#Cc1ccc(O[C@H]2CC[C@H](NC(=O)c3ccc(N4CCC5(CN(CC6CCN(c7cc8c(cc7F)C(=O)N(C7CCC(=O)NC7=O)C8=O)CC6)C5)C4)nn3)CC2)cc1Cl (stereo partly drawn) [Compound 183, N-((1r,4r)-4-(3-chloro-4-cyanophenoxy)cyclohexyl)-6-(2-((1-(2-(2,6-dioxopiperidin-3-yl)-6-fluoro-1,3-dioxoisoindolin-5-yl)piperidine-4-yl)methyl)-2,6-diazaspiro[3.4]octan-6-yl)pyridazine-3-formamide] | > 80 | 
13 | CC1(C)[C@H](Oc2ccc(C#N)c(Cl)c2)C(C)(C)[C@H]1N1Cc2nc(C#CC3CN(C4CCN(c5cc6c(cc5F)C(=O)N(C5CCC(=O)NC5=O)C6=O)CC4)C3)ccc2C1=O (stereo partly drawn) [Compound 320, 2-Chloro-4-((1r,3r)-3-(2-((1-(1-(2-(2,6-dioxopiperidin-3-yl)-6-fluoro-1,3-dioxoisoindolin-5-yl)piperidine-4-yl)azelaic acid-3-yl)ethynyl)-5-oxo-5H-pyrrolino[3,4-b]pyridin-6(7H)-yl)-2,2,4,4-tetramethylcyclobutoxy)benzonitrile] | 50 to 79 | 
14 | CC1(C)[C@H](NC(=O)c2cnc(N3C[C@@H]4[C@@H](CN5CCN(c6cc7c(cc6F)C(=O)N(C6CCC(=O)NC6=O)C7=O)CC5)[C@@H]4C3)cn2)C(C)(C)[C@H]1Oc1ccc(C#N)c(Cl)c1 (stereo partly drawn) [Compound 182, N-((1r,3R)-3-(3-chloro-4-cyanophenoxy)-2,2,4,4-tetramethylcyclobutyl)-5-((1R,5S,6S)-6-((4-(2-(2,6-dioxopiperidin-3-yl)-6-fluoro-1,3-dioxoisoindolin-5-yl)piperazin-1-yl)methyl)-3-azabicyclo[3.1.0]hexan-3-yl)pyrazine-2-carboxamide] | 50 to 79 | 
15 | N#Cc1ccc(OC2CCC(NC(=O)c3ncc(N4C[C@H]5CC(N6CCN(c7cc8c(cc7F)C(=O)N(C7CCC(=O)NC7=O)C8=O)CC6)C[C@H]5C4)cn3)CC2)cc1Cl (stereo partly drawn) [Compound 294, N-((1r,4r)-4-(3-chloro-4-cyanophenoxy)cyclohexyl)-5-((3aR,5R,6aS)-5-(4-(2-(2,6-dioxopiperidin-3-yl)-6-fluoro-1,3-dioxoisoindolin-5-yl)piperazin-1-yl)hexahydrocyclopenta[c]pyrrole-2(1H)-yl)pyrimidine-2-carboxamide] |  | C (49%-25%)
